For 5 molecules, IC50 results are on record in patent US11981661B2, “Heterocyclic compounds” (Hoffmann-La Roche Inc., priority 2020, dated 2024).

This assay has as its target T1, MAGL (Homo sapiens, UniProt Q99685).
T1 sequence (Q99685 1-303): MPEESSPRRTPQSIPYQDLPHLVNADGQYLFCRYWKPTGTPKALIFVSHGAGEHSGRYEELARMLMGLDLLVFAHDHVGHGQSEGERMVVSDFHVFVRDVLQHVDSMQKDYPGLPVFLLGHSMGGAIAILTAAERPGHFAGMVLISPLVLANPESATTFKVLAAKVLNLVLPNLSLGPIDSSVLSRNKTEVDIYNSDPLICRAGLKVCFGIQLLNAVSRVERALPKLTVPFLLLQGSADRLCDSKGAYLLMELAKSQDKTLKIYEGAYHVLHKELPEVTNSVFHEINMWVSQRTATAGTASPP
Nature of the assay: 2-AG assay (MAGL inhibitory activity, hydrolysis of 2-arachidonoylglycerol followed by mass spectrometry). The format is biochemical. To be noted: 50 pM MAGL, 8 μM 2-arachidonoylglycerol, 15 min preincubation, 30 min incubation at RT, concentration range 12.5 μM to 0.8 pM. The method, boiled down: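 50 pM MAGL preincubated 15 min at RT with compound (12.5 μM to 0.8 pM) in 50 mM TRIS, 1 mM EDTA, 0.01% Tween, then 8 μM 2-arachidonoylglycerol for 30 min at RT. Arachidonic acid measured by RapidFire SPE–triple quadrupole MS in negative mode, normalised to d8-arachidonic acid.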

In turn, `CS(=O)(=O)c1cc(Cl)ccc1-c1ccc(C2CN(C(=O)NCC3COC(=O)N3)C2)cc1` (centres unmarked) [Example 212, 3-[4-(4-Chloro-2-methylsulfonyl-phenyl)phenyl]-N-[(2-oxooxazolidin-4-yl)methyl]azetidine-1-carboxamide] yielded an IC50 of 0.025 µM.

With `O=C1NCC(CCC(=O)N2CC3(CC(Cc4ccc(C(F)(F)F)nc4)C3)C2)N1` (centres unmarked) [Example 213, 4-[3-Oxo-3-[6-[[6-(trifluoromethyl)-3-pyridyl]methyl]-2-azaspiro[3.3]heptan-2-yl]propyl]imidazolidin-2-one], inhibition was half-maximal at 2.25 µM (IC50).

Molecule `O=C1NCC(CCC(=O)N2CC(c3ccc(C4(C(F)(F)F)CC4)cc3)C2)N1` (centres unmarked) [Example 214, 4-[3-Oxo-3-[3-[4-[1-(trifluoromethyl)cyclopropyl]phenyl]azetidin-1-yl]propyl]imidazolidin-2-one] gave an IC50 of 0.157 µM.

`O=C1NCC(CCC(=O)N2CC(OCc3ccc(C(F)(F)F)cc3F)C2)N1` (centres unmarked) [Example 215, 4-[3-[3-[[2-Fluoro-4-(trifluoromethyl)phenyl]methoxy]azetidin-1-yl]-3-oxo-propyl]imidazolidin-2-one] registered an IC50 of 0.86 µM.

As for `CS(=O)(=O)c1cc(Cl)ccc1-c1ccc(C2CN(C(=O)CCC3CNC(=O)N3)C2)cc1` (centres unmarked) [Example 216, 4-[3-[3-[4-(4-Chloro-2-methylsulfonyl-phenyl)phenyl]azetidin-1-yl]-3-oxo-propyl]imidazolidin-2-one], the IC50 worked out at 0.068 µM.
